Assay [1] has as its system A549 cells. Briefly: Proliferation Assay (A549 cell viability, Cell Titer Fluor). The format is cell-based. As to conditions: 72 hours. In outline:
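Compound exposure lasted 72 h (final DMSO 0.5% v/v) on A549 cells plated at 1000 cells/well one day earlier. Cell Titer Fluor added, 30 min at 37 °C, fluorescence read; EC50 derived by four-parameter logistic curve fitting.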

Assay [2] concerns the target T1, purified recombinant human GAC (GLS1) (Homo sapiens, UniProt O94925).
T1 sequence (O94925 55-598 isoform O94925-3 limits assumed): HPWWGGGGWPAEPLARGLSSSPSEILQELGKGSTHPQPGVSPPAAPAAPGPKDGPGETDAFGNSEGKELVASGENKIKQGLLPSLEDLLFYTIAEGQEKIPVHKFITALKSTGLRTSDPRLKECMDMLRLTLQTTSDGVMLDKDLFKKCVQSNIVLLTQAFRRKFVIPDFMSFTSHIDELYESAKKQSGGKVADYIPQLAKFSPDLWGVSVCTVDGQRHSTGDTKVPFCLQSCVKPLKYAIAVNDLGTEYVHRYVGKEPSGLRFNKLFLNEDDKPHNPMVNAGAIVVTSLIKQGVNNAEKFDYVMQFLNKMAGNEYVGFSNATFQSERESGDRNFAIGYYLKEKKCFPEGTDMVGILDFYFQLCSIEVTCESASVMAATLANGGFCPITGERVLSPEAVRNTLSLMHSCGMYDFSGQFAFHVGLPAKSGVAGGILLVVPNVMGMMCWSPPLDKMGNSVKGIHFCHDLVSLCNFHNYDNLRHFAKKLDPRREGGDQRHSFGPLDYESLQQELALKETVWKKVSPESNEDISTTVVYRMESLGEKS
Briefly: GLS1 Enzymatic Activity Assay (dual-coupled enzymatic assay). The format is biochemical. In outline: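 In this coupled fluorometric format, phosphate-activated GAC (2 nM, 50 mM phosphate) is pre-exposed to compound for 10 min before 1 mM glutamine addition. Product is tracked as resorufin (530/590 nm) over time or at 20 min, and potency is derived by logistic fitting.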

Consider `O=C(NCc1cc(OC(F)(F)F)ccc1F)c1cn(CCCCc2cc3cc(C4CN(C(=O)C5COC5)C4)[nH]c3nn2)nn1` [Example 235, N-{[2-fluoro-5-(trifluoromethoxy)phenyl]methyl}-1-(4-{6-[1-(oxetane-3-carbonyl)azetidin-3-yl]-7H-pyrrolo[2,3-c]pyridazin-3-yl}butyl)-1H-1,2,3-triazole-4-carboxamide], for which the concentration for a half-maximal effect (EC50) in assay [1] (Homo sapiens) fell in the range of 500 to 5000 nM. For the same molecule, the IC50 in assay [2] is below 100 nM.
`Cc1ccc(CNC(=O)c2cn(CCCCc3cc4cc(-c5ccccc5Cl)[nH]c4nn3)nn2)cn1` [Example 236, 1-{4-[6-(2-chlorophenyl)-7H-pyrrolo[2,3-c]pyridazin-3-yl]butyl}-N-[(6-methylpyridin-3-yl)methyl]-1H-1,2,3-triazole-4-carboxamide]: the half-maximal effective concentration (EC50) in assay [1] (Homo sapiens) was in the range of 100 to 500 nM. Moreover, the half-inhibitory concentration (IC50) in assay [2] is below 100 nM.
Turning to `COCCOC(=O)N1CC(c2cc3cc(CCCCn4cc(C(=O)NCc5cc(OC(F)(F)F)ccc5F)nn4)nnc3[nH]2)C1` [Example 237, 2-methoxyethyl 3-(3-{4-[4-({[2-fluoro-5-(trifluoromethoxy)phenyl]methyl}carbamoyl)-1H-1,2,3-triazol-1-yl]butyl}-7H-pyrrolo[2,3-c]pyridazin-6-yl)azetidine-1-carboxylate], the EC50 in assay [1] (Homo sapiens) fell in the range of 100 to 500 nM. Further, the half-inhibitory concentration (IC50) in assay [2] is below 100 nM.
Molecule `O=C(NCc1cc(OC(F)(F)F)ccc1F)c1cn(CCCCc2cc3cc(C4CN(C(=O)Cc5ccccc5)C4)[nH]c3nn2)nn1` [Example 238, N-{[2-fluoro-5-(trifluoromethoxy)phenyl]methyl)-1-(4-{6-[1-(2-phenylacetyl)azetidin-3-yl]-7H-pyrrolo[2,3-c]pyridazin-3-yl}butyl)-1H-1,2,3-triazole-4-carboxamide] yielded an EC50 in assay [1] (Homo sapiens) below 100 nM. The IC50 in assay [2] is below 100 nM.
Turning to `CC(C)(O)c1ccnc(CNC(=O)c2cn(CCCCc3cc4cc(-c5ccccc5F)[nH]c4nn3)nn2)c1` [Example 239, 1-{4-[6-(2-fluorophenyl)-7H-pyrrolo[2,3-c]pyridazin-3-yl]butyl}-N-{[4-(2-hydroxypropan-2-yl)pyridin-2-yl]methyl}-1H-1,2,3-triazole-4-carboxamide], the concentration giving a half-maximal response (EC50) in assay [1] (Homo sapiens) lay in the range of 100 to 500 nM. The half-inhibitory concentration (IC50) in assay [2] is below 100 nM.
With `CNC(=O)c1cn(CCCCc2cc3cc(-c4ccccc4F)[nH]c3nn2)nn1` [Example 240, 1-{4-[6-(2-fluorophenyl)-7H-pyrrolo[2,3-c]pyridazin-3-yl]butyl}-N-methyl-1H-1,2,3-triazole-4-carboxamide], the EC50 in assay [1] (Homo sapiens) fell in the range of 100 to 500 nM. The 50% inhibitory concentration (IC50) in assay [2] was 100 to 500 nM.
As to `Cc1ccc(CNC(=O)c2cn(CC(F)CCc3cc4cc(-c5ccccc5F)[nH]c4nn3)nn2)cn1` (stereo not shown) [Example 241, 1-(2-fluoro-4-(6-(2-fluorophenyl)-7H-pyrrolo[2,3-c]pyridazin-3-yl)butyl)-N-((6-methylpyridin-3-yl)methyl)-1H-1,2,3-triazole-4-carboxamide], the EC50 in assay [1] (Homo sapiens) was below 100 nM. In addition, the IC50 in assay [2] was below 100 nM.
The molecule `O=C(NCc1ccccn1)c1cn(CC(F)CCc2cc3cc(-c4ccccc4F)[nH]c3nn2)nn1` (stereo not shown) [Example 242, 1-{2-fluoro-4-[6-(2-fluorophenyl)-7H-pyrrolo[2,3-c]pyridazin-3-yl]butyl}-N-(pyridin-2-ylmethyl)-1H-1,2,3-triazole-4-carboxamide] gave an EC50 in assay [1] (Homo sapiens) of 100 to 500 nM. Also, in assay [2], the IC50 was below 100 nM.
Take `CNC(=O)c1cn(CC(F)CCc2cc3cc(-c4ccccc4F)[nH]c3nn2)nn1` (stereo not shown) [Example 243, 1-{2-fluoro-4-[6-(2-fluorophenyl)-7H-pyrrolo[2,3-c]pyridazin-3-yl]butyl}-N-methyl-1H-1,2,3-triazole-4-carboxamide]: in assay [1] (Homo sapiens), the EC50 is 500 to 5000 nM. The IC50 in assay [2] lay within 100 to 500 nM.
Molecule `O=C(NCc1cc(C2CC2)ccn1)c1cn(CC(F)CCc2cc3cc(-c4ccccc4F)[nH]c3nn2)nn1` (stereo not shown) [Example 244, N-[(4-cyclopropylpyridin-2-yl)methyl]-1-{2-fluoro-4-[6-(2-fluorophenyl)-7H-pyrrolo[2,3-c]pyridazin-3-yl]butyl}-1H-1,2,3-triazole-4-carboxamide] came in with an EC50 in assay [1] (Homo sapiens) below 100 nM. Moreover, in assay [2], the IC50 is below 100 nM.
With “N-(5-(4-(7H-pyrrolo[2,3-c]pyridazin-3-yl)butyl)-1,3,4-thiadiazol-2-yl)-2-phenylacetamide [Example 64]”, in assay [1], the concentration for a half-maximal effect (EC50) lay in the range of 500 to 5000 nM. In addition, the IC50 in assay [2] was below 100 nM.

The term EC50 denotes the concentration giving half of the maximal effect. The term IC50 denotes the concentration needed to halve the response being measured.

For the origin of these results see patent US20160002248A1, “GLS1 INHIBITORS FOR TREATING DISEASE” (Board of Regents, The University of Texas System, priority 2014, published 2016).
